Data reported in ChEMBL document CHEMBL3507680, “University of Dundee, Gates Library screen for HepG2 cell viability”.

test: Human HepG2 cell viability assay in 384 well format; format: toxicity, cell-based; parameters: dose 125 nL, time 70.5 hour; concentration not given beside the values; conditions: HepG2 cells, read-out: Inhibition

Row | Compound | cytotoxicity at 70.5 h [%]
1 | COCCOCCNS(=O)(=O)C1CS(=O)(=O)c2ccccc21 (stereo not drawn) | -7.79
2 | Cn1cc(Cl)c(CN2CCn3nc(C(=O)N4CCCC4)cc3C2)n1 | -4.39
3 | CNC(=O)CCc1cc(C)nc(C2CCN(c3cnccn3)CC2)c1 | 0.777
4 | O=C1CCCCN1Cc1cccc(NC(=O)N2CCSCC2)c1 | -6.83
5 | CC[C@H]1CN(C(=O)c2cccnc2)CC[C@H]1CC(=O)NCCOC | -1.87
6 | O=S(=O)(c1ccc(Cl)cc1)N1CCc2nc(C3CCNCC3)ncc2C1 | -4.46
7 | COc1ccc(CN2CCn3cc(CN4CCCCC4)nc3C2)cc1 | 29.5
8 | Cc1ncsc1CN1C[C@H](OCc2ccncc2)[C@H]2OCCC[C@H]21 | -8.48
9 | Cc1ccoc1C(=O)N1CCCC(CNS(C)(=O)=O)C1 (stereo not drawn) | 18
10 | CN(C)CCNC(=O)[C@H]1C[C@@H]2CN(C(=O)NCc3ccccc3)C[C@H]1O2 | -14.9
11 | O=C(NCC(O)c1ccsc1)Nc1cccs1 (stereo not drawn) | 25.4
12 | CCOCC1CN(C(=O)Cc2ccccn2)Cc2c1cnn2CC (stereo not drawn) | 23.4
13 | COCCC(=O)N1CCOCC(Cc2ccc3c(ccn3C)c2)C1 (stereo not drawn) | -6.26
14 | CN1CC(=O)N(c2cccnc2)CC12CCN(C(=O)c1cccn1C)C2 (stereo not drawn) | 1.98
15 | COc1ccc(F)cc1S(=O)(=O)N1CCN(CCn2ccnc2)CC1 | -12.2
16 | Cc1cc(C)c(CNC(=O)NCC(O)c2ccccc2)c(=O)[nH]1 (stereo not drawn) | -1.05
17 | COc1ccc(NC(=O)c2cnc(N3CCN(C)CC3)nc2C)cc1 | -6.31
18 | CCCC(NC(=O)c1cc(C)n(C2CC2)c1C)c1nnn[nH]1 (stereo not drawn) | -0.607
19 | Cc1cncc(C(=O)N2Cc3ccccc3C3(CCN(C)CC3)C2)c1 | -14.6
20 | COCc1nc(CNc2cc(C)nc(-c3ccccc3)n2)no1 | -8.75
21 | Cn1cc(C(=O)NCC2CCN(C(=O)NC3CCCCC3)CC2)cn1 | -15.9
22 | CNc1cncc(C2CCCN2S(=O)(=O)c2ccccc2)n1 (stereo not drawn) | 0.983
23 | N#Cc1ccc(N2CCC3(CCC(=O)N3Cc3cccnc3)CC2)nc1 | -5.74

Row | Compound | cytotoxicity at 70.5 h [%]
24 | COc1ccc(C2(C(=O)N3C[C@@H](C(=O)O)[C@H](C(C)C)C3)CC2)cc1 | -6.04
25 | COc1ccccc1C(=O)NC(C)CC(=O)O (stereo not drawn) | -7.64
26 | CN(C)c1ncccc1CNC(=O)c1csc(Br)c1 | 13.3
27 | CC(C)c1nccn1CCCNC(=O)c1ccc(-c2cn[nH]c2)nc1 | -3.19
28 | Cn1cc(C(=O)NCCC(=O)N2CCCCC2)c(-c2cccnc2)n1 | 6.62
29 | CCN(CC)C(=O)c1ccc(CNc2ncc(C#N)cc2Cl)cc1 | -7.7
30 | CCCN1CCC(N2CCOC(Cc3cccc(OC)c3)C2)CC1 (stereo not drawn) | 9.86
31 | CC(C)NC(=O)C(C)NC(=O)N1CCN(c2ccc(Cl)cc2)CC1 (stereo not drawn) | 19
32 | O=C1CC(C(=O)O)C2(CCN(C(=O)Nc3ccccc3Cl)CC2)N1 (stereo not drawn) | -2.72
33 | COc1ccccc1C1(CNc2ncc(S(N)(=O)=O)s2)CC1 | -6.5
34 | CSc1nccc(NCC2CNCCOC2)n1 (stereo not drawn) | -11.3
35 | CSCCCN1CCN(c2ccc(Cl)cn2)CC1 | -5.7
36 | CN(C)C(=O)C1CN(Cc2cccs2)CCN(S(C)(=O)=O)C1 (stereo not drawn) | -5.12
37 | CN(Cc1ccc(C#N)cc1)Cc1noc(C(C)(C)C)n1 | -10.4
38 | O=C1N(Cc2cccnc2)CCC12CCCN(c1ncc(F)cn1)C2 (stereo not drawn) | -3.96
39 | COc1cccc(CNC(=O)CC2CSc3ncc(C)c(=O)n32)c1 (stereo not drawn) | 10.1
40 | Cc1ccc(CNC(=O)CN2CCN(CCO)CC2)s1 | -6.79
41 | Fc1cccc(-n2ccc(CN3CCCCC3Cn3cncn3)n2)c1 (stereo not drawn) | -13.3
42 | CCc1ncc(C(=O)N2CCN(Cc3ncccc3C)CC2)cn1 | -14.7
43 | COCc1ncc(CN2C[C@@H](C(=O)O)[C@H](C(C)C)C2)cn1 | 9.21
44 | CCN(C(=O)CN1CCC(c2ccccc2)C1)C1CC1 (stereo not drawn) | 0.241
45 | CCN(CCn1cccn1)Cc1nc(-c2ccc(C)o2)oc1C | 13
46 | COC1CCN(C(=O)CCn2ccc(=O)[nH]c2=O)CC1 | 8.52

Row | Compound | cytotoxicity at 70.5 h [%]
47 | Cc1cc(CN(CCO)c2ccc(Br)cc2)on1 | -0.419
48 | Cc1nc(NC(=O)CNC(=O)c2c(F)cccc2Cl)n[nH]1 | -6.51
49 | CN(C)CCNC(=O)Cc1cccc(I)c1 | 18.8
50 | CC(C)CCN1CC2(CCCN(C(=O)CNC(=O)N(C)C)C2)CCC1=O (stereo not drawn) | -10.1
51 | CC(C)(C)c1cnc(CNc2cccc(Cn3cnnc3)c2)o1 | -2.54
52 | COCCc1noc(-c2ccc(N[C@H]3CCCCNC3=O)nc2)n1 | 1.36
53 | Cn1nc2c(cc1=O)CN(Cc1coc(-c3cccc(F)c3)n1)CC2 | -2.83
54 | CN(Cc1cccs1)C1CCC[C@@H]2CN(C(N)=O)C[C@H]12 (stereo partly drawn) | -10.5
55 | CC(C)C(=O)NCc1ccc(-n2cncn2)nc1 | -4.44
56 | COC(=O)Cn1c(=O)nc2n1C(=O)N(c1ccc(Br)cc1)C2 | 10.9
57 | O=c1[nH]c2ccccc2cc1CN(Cc1ccccn1)CC1CCCO1 (stereo not drawn) | -4.2
58 | CC1(C)[C@H]2CC=C(CN3CCCn4nc(C(=O)O)cc4C3)[C@@H]1C2 | -19.9
59 | CCn1cnnc1CNC(=O)N1CCCCCC1 | -2.16
60 | CNC(=O)c1ccc(S(=O)(=O)NCCc2ccccn2)cc1 | 1.59
61 | O=C(Nc1cccnc1)c1noc2c1CN(S(=O)(=O)C1CC1)CC2 | -12.1
62 | Cc1ccc(N2CCCN(C(=O)CCCn3ccnc3C)CC2)nn1 | -0.226
63 | Cc1cc(C)n(CC(C)NC2CCN(Cc3cccc(O)c3)CC2)n1 (stereo not drawn) | -7.84
64 | O=C(c1ccc2[nH]ccc2c1)N1CC[C@@H]2CN(CC3CC3)CCO[C@@H]2C1 | -7.61
65 | CCOc1cccc(CNCc2ccc(NC(=O)NC(C)C)cc2)c1 | 4.86
66 | C=C1c2ccccc2C(=O)N1CCC(=O)N1CCNC(=O)C1 | 3.89
67 | Cc1cnc(C)c(Oc2ccc(Cl)c(CN3CCCC3)c2Cl)n1 | 18.5
68 | O=C(Cc1csc(Cc2ccccn2)n1)NCCCN1CCCC1=O | 32.1
69 | CSc1ccc(C(CNC(C)=O)N2CCc3sccc3C2)cc1 (stereo not drawn) | -12.8

Row | Compound | cytotoxicity at 70.5 h [%]
70 | Cc1ccc(CN2C[C@@H]3CN(c4ncccn4)C[C@@H]3C2)cc1 | -4.24
71 | COCC1CC2(CCN(Cc3ccccn3)CC2)CN1c1ncccn1 (stereo not drawn) | 0.787
72 | CCN1CCOC(CNCc2cnc(C(C)(C)C)s2)C1 (stereo not drawn) | -5.25
73 | Cc1cnc(N2CCOC(C(=O)NCc3ccccc3)C2)s1 (stereo not drawn) | -15.2
74 | Cc1ccc(N(Cc2ccco2)C(=O)CC2=NN(C)C(=O)C2)cc1 | -9.83
75 | CC(C)NC(=O)CN(C)C(=O)c1c(Br)c2ccccc2n1C | -4.11
76 | CC(NCc1cnn(C)c1)c1noc(-c2ccc(Cl)cc2)n1 (stereo not drawn) | -5.15
77 | O=C(CC1CC1)N[C@@H]1CN(Cc2ccncc2)C[C@@H]2CCCO[C@@H]21 | -0.814
78 | CCc1ccc(CN2CCc3ncnc(N4CCOCC4)c3CC2)o1 | -1.4
79 | c1cncc(-c2ccnn2CN2CCOCC2)c1 | 0.876
80 | CS(=O)(=O)c1ccc2c(c1)N(C(=O)Cc1cccc(F)c1)CCC2 | -0.9
81 | O=C(c1ccccc1)N1CC(C(=O)N2CCOCC2)C2(CCOCC2)C1 (stereo not drawn) | 7.01
82 | COc1cc(CN2CCCC23CCN(c2ccccn2)CC3)ccc1F | -0.0865
83 | Cc1ccc(Cn2c(=O)[nH]c3cccnc3c2=O)cc1 | -8.02
84 | Cc1nc(NCc2coc(-c3ccccc3)n2)cc(C2CCNCC2)n1 | -2.73
85 | Cc1cc(NC(=O)N2CCN(C)CC2C)n(C(C)(C)C)n1 (stereo not drawn) | -9.8
86 | CC(C)(C)NC(=O)CN1CCCN(c2ccc(C#N)cn2)CC1 | -6.98
87 | CC1CCN(c2ncc3c(n2)CN(C2CCS(=O)(=O)C2)C3=O)CC1 (stereo not drawn) | 29
88 | CCOc1cccc(CN(Cc2cnn(C)c2)CC(C)C)c1O | 7.39
89 | O=C(Nc1cc(C2CCOCC2)[nH]n1)c1ccc(Cl)cn1 | -1.48
90 | O=C([C@H]1CCCO1)N1CC[C@H](O)[C@@H]1Cc1ccncc1 | 1.55
91 | CC(C)c1cc(C(=O)N2CCOC3(CCNCC3)C2)no1 | -5.65
92 | CCc1nnc(CNC(=O)CCCN2CCCCC2)s1 | -0.919

Row | Compound | cytotoxicity at 70.5 h [%]
93 | CC(Nc1nc(-c2ccccc2)nc2c1CCNCC2)c1nccs1 (stereo not drawn) | 2.31
94 | OC1(CN2CCCC2)COCCN(c2cc(C(F)(F)F)ccn2)C1 (stereo not drawn) | -7.83
95 | CCN1CCN(C(=O)Cn2ncc3c2c(C)nn3C(C)C)CC1 | -4.28
96 | CN(C)C(=O)C1CCN(C2CCN(CC3CCC3)CC2)CC1 | -1.7
97 | CC(C)(NCc1cccc(O)c1)c1ccc2c(c1)OCO2 | -11.8
98 | CCc1ccc(C(=O)O)cc1S(=O)(=O)Nc1ccc2c(c1)OCCO2 | 4.02
99 | O=C(NCc1cc[nH]n1)N1CCC(Oc2ccccc2Cl)CC1 | 8.97
100 | CN(C(=O)c1ccc(-n2ncc(C#N)c2N)cc1)C1CCCC1 | -1.19
101 | CCN(C)S(=O)(=O)NC(C)c1cnc(N(C)C2CCCCC2)nc1C (stereo not drawn) | -4.92
102 | COc1cccc(C2CCCN2C(=O)CC2=CSC3=NCCCN23)c1 (stereo not drawn) | -12
103 | CCC[C@@H]1CN(Cc2ccccc2-c2ccco2)C[C@H]1NC(C)=O | -5.42
104 | Cc1cnn(CC(C)NCc2cc(=O)n3ccccc3n2)c1 (stereo not drawn) | -11.2
105 | COc1ccc(CSc2nnc(N)n2C2CC2)cc1F | 24.8
106 | O=C(NCC(CO)Cc1ccc(Cl)cc1)c1ccncc1F (stereo not drawn) | -1.03
107 | O=C(NC1CCCc2nc(N3CCOCC3)ncc21)C1CCCC1 (stereo not drawn) | -4.32
108 | O=C(Cc1ccccc1)N1Cc2nccn2CC(CN2CCCC2)C1 (stereo not drawn) | -0.449
109 | COc1ccccc1OC1(C(=O)O)CCN(c2cc(C)nc(C)c2)CC1 | -0.575
110 | Cc1cc(C)c2c(c1)C(NC(=O)CSCc1ccncc1)CCO2 (stereo not drawn) | -7.37
111 | CC(C)NC(=O)CN(C)C1CCN(c2cnc3ccccc3n2)CC1 | 20.5
112 | OCCNc1nccc(-c2c[nH]nc2-c2cccnc2)n1 | -3.73
113 | NC(=O)C1CCN(c2ccc(C(=O)N3CCc4ccccc43)cn2)C1 (stereo not drawn) | -4.05
